This note sets out measurements from patent US20230151049A1, “Compounds Useful in HIV Therapy” (priority 2020, published 2023).

Read-outs that look alike come from different tables or passages of the source.

The nature of this series: in vivo. The following applies: for Mean concentration of Example 4B: single IM 20 mg/kg equivalent of EFdA. The text has this:
General Protocol for Prodrugs Rat PK Studies Conducted at ChemPartner, China
A total of three naïve male Wistar Han rats, 200-250 g, were received from Beijing VR Laboratory Animal Co. LTD. Following an acclimation period, the animals were assigned to the study based on acceptable health as determined by a staff veterinarian and catheter patency. Fasting of the animals before or after dosing was not required.
On Day 1, each animal received a single intramuscular injection of prepared test article at a target dose level of 20 mg/kg equivalent of EFdA and at a dose volume of 2 mL/kg. The injection sites were at gastrocnemius and identified with an indelible marker for daily monitoring during the study. The animals were manually restrained for dosing and were not sedated. The dose suspension was mixed well by inversion before each dose to ensure homogeneity. […] In addition, all animals are monitored twice daily by the veterinary staff for clinical abnormalities.
Blood samples were collected from the study animals as detailed in the sample collection Table 6 below
Each blood sample for PK (200 μL) was collected from tail vein. The blood was transferred to a tube containing NaF/Na2EDTA anticoagulant and inverted several times to mix. Draw 150 μL whole blood from the tube, add 150 uL 100 mM ammonium acetate, pH 4 buffer and mix well. The resulting blood samples were transferred to individual polypropylene tubes and immediately placed on dry ice until storage at nominally −80° C. prior to LC-MS/MS analysis.

[1] abbreviates: day 28, single IM Example 2B 20 mg/kg.
[2] abbreviates: day 35, single IM Example 2B 20 mg/kg.
Where [3] appears, read: day 14, single IM Example 9B 20 mg/kg equivalent of EFdA.
Setting [4] is: day 21, single IM Example 9B 20 mg/kg equivalent of EFdA.
[5] abbreviates: day 28, single IM Example 9B 20 mg/kg equivalent of EFdA.

Take `C#C[C@]1(COP(=O)(N[C@@H](Cc2ccccc2)C(=O)OCCCCCCCCCCCCCCCC)Oc2ccccc2)O[C@@H](n2cnc3c(N)nc(F)nc32)C[C@@H]1O` (single isomer, unassigned) [Example 2B]: the “Mean concentration of EFdA” value is, setting by setting: (day 1, single IM Example 2B 20 mg/kg) “BQL (BQL = below quantification limit, 0.2-0.3 ng/mL for both)”; (day 7, single IM Example 2B 20 mg/kg) “BQL (BQL = below quantification limit, 0.2-0.3 ng/mL for both)”; (day 14, single IM Example 2B 20 mg/kg) “BQL (BQL = below quantification limit, 0.2-0.3 ng/mL for both)”; (day 21, single IM Example 2B 20 mg/kg) “BQL (BQL = below quantification limit, 0.2-0.3 ng/mL for both)”; under setting [1], “BQL (BQL = below quantification limit, 0.2-0.3 ng/mL for both)”; under setting [2], “BQL (BQL = below quantification limit, 0.2-0.3 ng/mL for both)”. Besides, the “Mean concentration of Example 2B” value by setting is: under setting [1], “BQL (BQL = below quantification limit, 0.2-0.3 ng/mL for both)”; under setting [2], “BQL (BQL = below quantification limit, 0.2-0.3 ng/mL for both)”. In addition, the concentration at 1 day (male, Wistar Han, rat, in vivo, day 1, single IM Example 2B 20 mg/kg, read-out: Mean concentration of Example 2B) was 0.514 ng/mL. For the same compound, the concentration at 7 day (male, Wistar Han, rat, in vivo, day 7, single IM Example 2B 20 mg/kg, read-out: Mean concentration of Example 2B) was 0.708 ng/mL. In addition, the concentration at 14 day (male, Wistar Han, rat, in vivo, day 14, single IM Example 2B 20 mg/kg, read-out: Mean concentration of Example 2B) amounted to 1.11 ng/mL. Also, the concentration at 21 day (male, Wistar Han, rat, in vivo, day 21, single IM Example 2B 20 mg/kg, read-out: Mean concentration of Example 2B) turned out to be 1.33 ng/mL.

Regarding `C#C[C@]1(COP(=O)(N[C@@H](Cc2ccccc2)C(=O)OCCCCCCCCCC)Oc2ccccc2)O[C@@H](n2cnc3c(N)nc(F)nc32)C[C@@H]1O` (single isomer, unassigned) [Example 4B], the “Mean concentration of Example 4B” value was “BQL (BQL = below quantification limit, 0.5 ng/mL for Example 4B and 0.5 to 1 ng/mL for EFdA)” (day 0.0208); “BQL (BQL = below quantification limit, 0.5 ng/mL for Example 4B and 0.5 to 1 ng/mL for EFdA)” (day 0.0417); “BQL (BQL = below quantification limit, 0.5 ng/mL for Example 4B and 0.5 to 1 ng/mL for EFdA)” (day 0.125); “BQL (BQL = below quantification limit, 0.5 ng/mL for Example 4B and 0.5 to 1 ng/mL for EFdA)” (day 0.208); “BQL (BQL = below quantification limit, 0.5 ng/mL for Example 4B and 0.5 to 1 ng/mL for EFdA)” (day 0.292); “BQL (BQL = below quantification limit, 0.5 ng/mL for Example 4B and 0.5 to 1 ng/mL for EFdA)” (day 1). The “Mean concentration of Example 4B” value reads like this: (day 2) “BQL (BQL = below quantification limit, 0.5 ng/mL for Example 4B and 0.5 to 1 ng/mL for EFdA)”; (day 3) “BQL (BQL = below quantification limit, 0.5 ng/mL for Example 4B and 0.5 to 1 ng/mL for EFdA)”; (day 4) “BQL (BQL = below quantification limit, 0.5 ng/mL for Example 4B and 0.5 to 1 ng/mL for EFdA)”; (day 5) “BQL (BQL = below quantification limit, 0.5 ng/mL for Example 4B and 0.5 to 1 ng/mL for EFdA)”; (day 7) “BQL (BQL = below quantification limit, 0.5 ng/mL for Example 4B and 0.5 to 1 ng/mL for EFdA)”. The “Mean concentration of EFdA” value was “BQL (BQL = below quantification limit, 0.5 ng/mL for Example 4B and 0.5 to 1 ng/mL for EFdA)” (day 14, single IM Example 4B 20 mg/kg equivalent of EFdA); “BQL (BQL = below quantification limit, 0.5 ng/mL for Example 4B and 0.5 to 1 ng/mL for EFdA)” (day 17, single IM Example 4B 20 mg/kg equivalent of EFdA); “BQL (BQL = below quantification limit, 0.5 ng/mL for Example 4B and 0.5 to 1 ng/mL for EFdA)” (day 21, single IM Example 4B 20 mg/kg equivalent of EFdA); “BQL (BQL = below quantification limit, 0.5 ng/mL for Example 4B and 0.5 to 1 ng/mL for EFdA)” (day 24, single IM Example 4B 20 mg/kg equivalent of EFdA); “BQL (BQL = below quantification limit, 0.5 ng/mL for Example 4B and 0.5 to 1 ng/mL for EFdA)” (day 28, single IM Example 4B 20 mg/kg equivalent of EFdA); “BQL (BQL = below quantification limit, 0.5 ng/mL for Example 4B and 0.5 to 1 ng/mL for EFdA)” (day 31, single IM Example 4B 20 mg/kg equivalent of EFdA).

Consider `C#C[C@]1(COP(=O)(N[C@@H](Cc2ccccc2)C(=O)OCCCCCCCCCC)OCC(=O)OCCCCCCCCCC)O[C@@H](n2cnc3c(N)nc(F)nc32)C[C@@H]1O` (single isomer, unassigned) [Example 9B], for which the “Mean concentration of EFdA” value under setting [3] was “BQL (BQL = below quantification limit, 0.2-0.3 ng/mL for Example 9B and 0.2 ng/mL for EFdA)”; the “Mean concentration of EFdA” value under setting [4] was “BQL (BQL = below quantification limit, 0.2-0.3 ng/mL for Example 9B and 0.2 ng/mL for EFdA)”; the “Mean concentration of EFdA” value under setting [5] is “BQL (BQL = below quantification limit, 0.2-0.3 ng/mL for Example 9B and 0.2 ng/mL for EFdA)”. In addition, the “Mean concentration of Example 9B” value runs as follows: under setting [3], “BQL (BQL = below quantification limit, 0.2-0.3 ng/mL for Example 9B and 0.2 ng/mL for EFdA)”; under setting [4], “BQL (BQL = below quantification limit, 0.2-0.3 ng/mL for Example 9B and 0.2 ng/mL for EFdA)”; under setting [5], “BQL (BQL = below quantification limit, 0.2-0.3 ng/mL for Example 9B and 0.2 ng/mL for EFdA)”. Besides, the concentration at 1 day (male, Wistar Han, rat, whole blood, intramuscular, day 1, single IM Example 9B 20 mg/kg equivalent of EFdA, read-out: Mean concentration of Example 9B) is 3.01 ng/mL. In addition, where the note is “male, Wistar Han, rat, whole blood, intramuscular, day 7, single IM Example 9B 20 mg/kg equivalent of EFdA, read-out: Mean concentration of Example 9B”, the concentration at 7 day amounted to 0.663 ng/mL.
